The source of these data is ChEMBL document CHEMBL1137249, “Cytostatic and antiviral 6-arylpurine ribonucleosides. Part 7: synthesis and evaluation of 6-substituted purine l-ribonucleosides” (Bioorg Med Chem Lett, 2006).

Series [1] in a line: Cytotoxicity against Huh7 cells expressing HCV con1 replicon. Format: cell-based, Huh-7. As to conditions: human.
Series [2] concerns Hepatitis C virus. The series can be described thus: Antiviral activity against HCV con1 replicon by HCV subgenomic replicon assay. Format: functional, organism-based, Hepacivirus hominis. As to conditions: genotype 1b con1.
The nature of series [3]: Cytotoxicity against MT4 cells. The series is classed as cell-based. As to conditions: human.
The test system of series [4] is Hepatitis C virus. The series can be described thus: Incorporation by HCV con1 NS5Bdelta55 RNA polymerase upto 1mM. As to conditions: Hepatitis C virus subtype 1b.
Series [5] relates to Hepatitis C virus. Briefly: Inhibition of recombinant HCV con1 NS5Bdelta21 RNA polymerase. Set-up: species or system Hepatitis C virus subtype 1b.

Each structure is given as a SMILES string. Active and inactive are the calls of the source. The rule behind the calls is not given here. A value given as a limit tells only on which side of the number the result lay.

In the case of `CCc1ncnc2c1ncn2[C@H]1O[C@@H](CO)[C@H](O)[C@@H]1O`, the CC50 in series [1] was above 500 µM. Besides, in the series on Hepatitis C virus [2], the EC50 was above 500 µM.
In the case of `OC[C@@H]1O[C@H](n2cnc3c(-c4ccsc4)ncnc32)[C@@H](O)[C@H]1O`, in series [1], the CC50 was above 50 µM. This compound yielded a half-maximal effective concentration (EC50) with Hepatitis C virus [2] above 50 µM.
For `OC[C@H]1O[C@H](n2cnc3c(-c4cccs4)ncnc32)[C@@H](O)[C@H]1O`, the cytotoxic concentration (CC50) in series [3] and in series [1] was above 100 µM in each case. The same compound came in with an EC50 with Hepatitis C virus [2] of 56 µM.
For the compound `OCc1ncnc2c1ncn2[C@H]1O[C@@H](CO)[C@H](O)[C@@H]1O`, the CC50 in series [1] is above 500 µM. This compound registered a concentration giving a half-maximal response (EC50) in the series with Hepatitis C virus [2] above 500 µM.
On to `Nc1ncnc2c1ncn2[C@H]1O[C@@H](COP(=O)(O)O)[C@H](OP(=O)(O)O)[C@@H]1OP(=O)(O)O`, for which the outcome in the series on Hepatitis C virus [4] was inactive.
On to `OC[C@@H]1O[C@H](n2cnc3c(-c4ccccc4)ncnc32)[C@@H](O)[C@H]1O`, for which the cytotoxic concentration (CC50) in series [1] is above 50 µM. The EC50 with Hepatitis C virus [2] is above 100 µM.
On to `Cc1ncnc2c1ncn2[C@H]1O[C@@H](CO)[C@H](O)[C@@H]1O`, for which the CC50 in series [1] was above 500 µM. In the series with Hepatitis C virus [2], this compound registered an EC50 above 500 µM.
For the compound `OC[C@@H]1O[C@H](n2cnc3c(-c4ccco4)ncnc32)[C@@H](O)[C@H]1O`, in series [1], the half-maximal cytotoxic concentration (CC50) was above 100 µM. The same compound gave an EC50 in the series with Hepatitis C virus [2] above 100 µM.
In series [1], `COc1ccc(-c2ncnc3c2ncn3[C@H]2OC(CO)[C@H](O)[C@@H]2O)cc1` (single isomer, unassigned) showed a cytotoxic concentration (CC50) above 100 µM. The same compound registered an EC50 in the series on Hepatitis C virus [2] above 50 µM.
Regarding `OC[C@@H]1O[C@H](n2cnc3c(Cc4ccccc4)ncnc32)[C@@H](O)[C@H]1O`, the CC50 in series [3] and in series [1] was above 500 µM throughout. Further, the IC50 in the series with Hepatitis C virus [5] was above 100 µM. In the series with Hepatitis C virus [2], a half-maximal effect (EC50) was put at 41 µM. In addition, in the series on Hepatitis C virus [4], the result was inactive.
Consider `O=P(O)(O)OC[C@@H]1O[C@H](n2cnc3c(Cc4ccccc4)ncnc32)[C@@H](OP(=O)(O)O)[C@H]1OP(=O)(O)O`, for which the outcome in the series on Hepatitis C virus [4] was inactive.

The CC50 is the concentration at which the toxic effect on the cells reaches its halfway point. Read a high CC50 as better tolerance by the cells. Broadly, the EC50 is the concentration needed to bring the measured effect to its halfway point. Low values mean higher potency in that assay, high ones lower potency in that assay. Usually IC50 stands for the point on the concentration scale where inhibition reaches its midpoint.
